Tests used:
Sprague-Dawley rats = test: in vivo toxicity test, intraperitoneal injection in Sprague-Dawley rats; conditions: 10 mg, rats 240-250 g body weight
Method: (§1) The therapeutic use of C1' aminobiopterin is facilitated by its low toxicity, both in vitro and in vivo. A useful in vitro toxicity screen which is predictive of in vivo response was to use cultured 3T3 murine fibroblasts. […] In an in vivo test, intraperitoneal injection of a solution containing 10 mg of tetrahydroaminobiopterin (I) dihydrochloride caused no toxicity in Sprague-Dawley rats (240-250 g body weight).

[1] = tested on: cultivated porcine endothelial cells; test: NOS inhibition in cultivated porcine endothelial cells; format: cell-based; conditions: Sus scrofa, Endothelial cell, read-out: IC50, inhibitory effect on NOS
murine NIH-3T3 = test: formation of nitrites triggered in murine NIH-3T3 by interferon-γ (250 U/ml) and LPS; format: cell-based
Method: (§2) It has been discovered that C1' tetrahydroaminobiopterin inhibits the stimulation of NOSs by 10 μM tetrahydrobiopterin with an IC50 (50% inhibitory concentration) of 1 μM (rat neuronal NOS), or 7 μM (murine inducible NOS) as assayed by formation of tritiated citrulline from tritiated L-arginine according to Mayer, et al., "Molecular mechanisms of inhibition of porcine brain nitric oxide synthase by the antinociceptive drug 7-nitro-indazole," Neuropharmacology, 33:1253-1259 (1994), the teachings of which are incorporated herein by reference. In tissue culture tetrahydroaminobiopterin (I) reduced the formation of nitrites (a breakdown product of nitric oxide) when formation was triggered in murine NIH-3T3 by treatment with a combination of murine interferon-y (250 U/ml) and lipopolysaccharide (1 μg/ml) ("LPS"). […] In one embodiment, rat liver phenylalanine-4-hydroxylase was inhibited by 1 mM tetrahydroaminobiopterin only 30% irrespective of the tetrahydroaminobiopterin concentrations used (3-300 μM). IC50 of tetrahydroaminobiopterin (I) for sheep liver dihydropterin reductase is 20 μM, again irrespective of the tetrahydroaminobiopterin concentrations used.

[2] = target: rat neuronal nitric oxide synthase (Rattus norvegicus, UniProt P29476); test: binding of tritiated tetrahydroaminobiopterin (Klatt et al.), affinity for rat neuronal nitric oxide synthase; conditions: vs naturally occurring cofactor tetrahydrobiopterin
rat neuronal nitric oxide synthase, sequence (P29476 whole entry): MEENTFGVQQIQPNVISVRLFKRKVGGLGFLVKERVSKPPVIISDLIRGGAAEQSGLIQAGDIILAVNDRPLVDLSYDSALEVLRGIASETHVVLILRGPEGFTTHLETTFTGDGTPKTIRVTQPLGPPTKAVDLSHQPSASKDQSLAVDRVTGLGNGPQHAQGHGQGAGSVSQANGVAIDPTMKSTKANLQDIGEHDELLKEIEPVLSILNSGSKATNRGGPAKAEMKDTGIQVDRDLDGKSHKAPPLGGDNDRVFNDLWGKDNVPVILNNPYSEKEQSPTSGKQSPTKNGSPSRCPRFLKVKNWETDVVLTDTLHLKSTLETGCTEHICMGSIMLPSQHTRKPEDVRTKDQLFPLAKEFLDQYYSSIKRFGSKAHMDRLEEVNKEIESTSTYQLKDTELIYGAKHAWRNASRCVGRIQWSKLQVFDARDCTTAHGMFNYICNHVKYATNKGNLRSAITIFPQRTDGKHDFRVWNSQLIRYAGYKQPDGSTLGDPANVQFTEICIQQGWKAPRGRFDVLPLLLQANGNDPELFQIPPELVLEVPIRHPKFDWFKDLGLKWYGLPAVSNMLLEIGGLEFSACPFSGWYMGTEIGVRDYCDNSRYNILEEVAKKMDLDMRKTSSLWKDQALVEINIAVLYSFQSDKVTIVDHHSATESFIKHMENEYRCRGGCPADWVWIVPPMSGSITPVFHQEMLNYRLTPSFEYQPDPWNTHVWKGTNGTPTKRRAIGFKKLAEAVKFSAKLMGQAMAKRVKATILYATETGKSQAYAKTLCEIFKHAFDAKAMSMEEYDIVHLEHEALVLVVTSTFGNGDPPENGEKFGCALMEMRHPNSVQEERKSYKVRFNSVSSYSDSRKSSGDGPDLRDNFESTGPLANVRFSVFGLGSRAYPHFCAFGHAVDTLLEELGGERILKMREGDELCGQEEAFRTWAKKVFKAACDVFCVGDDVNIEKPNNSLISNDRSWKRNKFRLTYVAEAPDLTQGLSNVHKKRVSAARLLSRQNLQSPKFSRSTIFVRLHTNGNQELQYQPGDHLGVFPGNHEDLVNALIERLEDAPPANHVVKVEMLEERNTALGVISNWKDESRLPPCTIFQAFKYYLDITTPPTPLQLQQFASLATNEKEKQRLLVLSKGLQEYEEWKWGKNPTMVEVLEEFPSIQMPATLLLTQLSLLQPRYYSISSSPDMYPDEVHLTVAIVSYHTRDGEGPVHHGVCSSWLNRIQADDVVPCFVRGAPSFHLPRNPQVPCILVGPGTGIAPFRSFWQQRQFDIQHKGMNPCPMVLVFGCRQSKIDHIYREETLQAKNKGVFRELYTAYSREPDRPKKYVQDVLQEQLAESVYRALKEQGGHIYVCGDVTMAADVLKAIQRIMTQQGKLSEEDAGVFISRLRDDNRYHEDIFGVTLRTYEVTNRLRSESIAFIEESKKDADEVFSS
Method: These determinations are assayed with binding of tritiated tetrahydroaminobiopterin according to the method of Klatt et al., "The pteridine binding site of brain nitric oxide synthase," J.Biol.Chem., 269:13861-13866 (1994), the teachings of which are incorporated herein by reference.

murine inducible NOS = murine inducible NOS (Mus musculus, UniProt P29477); test: NO synthase activity, formation of tritiated citrulline from tritiated L-arginine (murine inducible); format: biochemical; conditions: 10 μM tetrahydrobiopterin, read-out: IC50 (50% inhibitory concentration), inhibition of stimulation of NOSs by tetrahydrobiopterin
Method: as §2

NOSs = test: specificity for NOSs; format: biochemical
Method: as §2

[3] = target: inducible murine nitric oxide synthase (Mus musculus, UniProt P29477); test: binding of tritiated tetrahydroaminobiopterin (Klatt et al.), affinity for inducible murine nitric oxide synthase; conditions: vs naturally occurring cofactor tetrahydrobiopterin
[4] = target: T1, recombinant rat neuronal NO synthase (Rattus norvegicus, UniProt P29476); test: NO synthase activity, formation of tritiated citrulline from tritiated L-arginine (rat neuronal); format: biochemical
T1 construct: made in house
Method: as §2
NO synthase activity: NO synthase activity was measured as the formation of [2,3,4,5-^3 H]citrulline from L-[2,3,4,5-^3 H]arginine. This was conducted by the method of Mayer, et al., "Molecular mechanisms of inhibition of porcine brain nitric oxide synthase by the antinociceptive drug 7-nitro-indazole," Neuropharmacology, 33:1253-1259 (1994). Incubation mixtures (0.1 ml) contain 50 mM triethanolamine/HCl buffer, pH 7.0, 0.1 μg purified recombinant rat neuronal NO synthase (tetrahydrobiopterin-free, prepared according to the teachings of List et al., Biochem. J., 315:57-63 (1996)), the teachings of which are incorporated herein by reference., 0.1 mM L-2,3,4,5-^3 H]arginine (approx 6000 counts per minute). 0.5 mM CaCl2, 10 μg/ml calmodulin, 0.2 mM NADPH ([…], reduced form), 10 μM 6R-tetrahydrobiopterin, 0-1000 μM NO synthase inhibitor, 5 μM flavin adenine dinucleotide("FAD"), 5 μM flavin mononucleotide ("FMN"), and 0.2 mM 3-[3-chloramidopropyl)dimethylamonio]-1-propanesulfonate ("CHAPS"). After incubation for 10 minutes at 37° C., the reaction is stopped by the addition of 0.9 ml 20 mM sodium acetate buffer, pH 5.5, containing 1 mM L-citrulline. The mixture is then applied to ion exchange resin columns (Dowex AG50W-XB, Dow Chemical, Midland, Mich.), the eluate and 1 ml water for washing the column are collected. Next, 7 ml scintillation cocktail are added and the radioactivity is determined. The radioactivity detected by scintillation corresponds to the amount of L-citrulline formed in the NO synthase reaction.

3T3 murine fibroblasts = test: in vitro toxicity screen in cultured 3T3 murine fibroblasts; format: cell-based; conditions: 250 μM, up to 48 hours
Method: as §1

[5] = tested on: rat liver phenylalanine-4-hydroxylase; test: inhibition of rat liver phenylalanine-4-hydroxylase; format: biochemical; conditions: 1 mM; irrespective of the tetrahydroaminobiopterin concentrations used (3-300 μM)
Method: as §2

murine 3T3 fibroblasts = test: nitrite formation by interferon-γ/LPS stimulated murine 3T3 fibroblasts (Example 2); format: cell-based; conditions: for inhibition at 7.8 µM: conc. 7.8 μM; for inhibition at 7.8 µM / inhibition at 15.6 µM / inhibition at 31.2 µM / inhibition at 62.5 µM: 48 hours; for inhibition at 15.6 µM: conc. 15.6 μM; for inhibition at 31.2 µM: conc. 31.2 μM; for inhibition at 62.5 µM: conc. 62.5 μM
Method: Nitric oxide synthase is induced in 3T3 fibroblasts from mice (1×10^5 /ml) by a mixture of LPS (055:b5 from E. coli.), 1 μg/ml) and murine interferon-γ (50 U/ml). The cells were cultured with and without inhibitors for 48 hours, and nitrite was determined in culture supernatants as a measure of NO formation by the cells. The ratio of nitrite to nitrate, the second product of decomposition of NO, remains constant by treatment with the inhibitor. Nitrite determination was carried out using the Greiss Ilosvay's reagent, which was mixed with an equal volume of culture supernatant and the amount of dye formed was measured by UV absorption at 550 nm in a microplate reader.

[6] = conc. 0.01 μM, 10 μM 6R-tetrahydrobiopterin
[7] = conc. 0.1 μM, 10 μM 6R-tetrahydrobiopterin
[8] = conc. 1.0 μM, 10 μM 6R-tetrahydrobiopterin
[9] = conc. 3.0 μM, 10 μM 6R-tetrahydrobiopterin
[10] = conc. 10 μM, 10 μM 6R-tetrahydrobiopterin
[11] = conc. 30 μM, 10 μM 6R-tetrahydrobiopterin
[12] = conc. 100 μM, 10 μM 6R-tetrahydrobiopterin
[13] = conc. 1000 μM, 10 μM 6R-tetrahydrobiopterin

Row | NO synthase activity [4, 6] [nmol/mg/min] | NO synthase activity [4, 7] [nmol/mg/min] | NO synthase activity [4, 8] [nmol/mg/min] | NO synthase activity [4, 10] [nmol/mg/min] | NO synthase activity [4, 12] [nmol/mg/min] | NO synthase activity [4, 13] [nmol/mg/min] | inhibition at 100 µM [4, 12] [%] | Compound | affinity for nitric oxide synthase relative to tetrahydrobiopterin (fold higher) [2] | affinity for nitric oxide synthase relative to tetrahydrobiopterin (fold higher) [3] | NO synthase activity [4, 9] [nmol/mg/min] | inhibition at 3 µM [4, 9] [%] | NO synthase activity [4, 11] [nmol/mg/min] | inhibition at 30 µM [4, 11] [%] | inhibition at 7.8 µM (murine 3T3 fibroblasts; Mus musculus, Fibroblast) [%] | inhibition at 15.6 µM (murine 3T3 fibroblasts; Mus musculus, Fibroblast) [%] | inhibition at 31.2 µM (murine 3T3 fibroblasts; Mus musculus, Fibroblast) [%] | inhibition at 62.5 µM (murine 3T3 fibroblasts; Mus musculus, Fibroblast) [%] | other results
1 |  |  |  |  |  |  |  | C[C@H](O)[C@H](O)C1CNc2nc(N)nc(N)c2N1 (stereo partly drawn) |  |  |  |  |  |  |  |  |  |  | toxicity in vivo (Sprague-Dawley rats): no toxicity
2 | 325 | 318 | 306 | 316 | 274 | 136 | 18 | Nc1nc(N)c2c(n1)NCC(CO)N2 (stereo not drawn) [(III), 2,4-diamino-5,6,7,8-tetrahydro-6-hydroxymethyl pteridine, reference compound] |  |  | 304 | 9 | 319 | 4 | 0 | 8 | 16 | 50 | inhibition at 0.01 µM [4, 6]: 3%; inhibition at 0.1 µM [4, 7]: 5%; inhibition at 1 µM [4, 8]: 8%; inhibition at 10 µM [4, 10]: 5%; inhibition at 1000 µM [4, 13]: 60%; activity in words (murine 3T3 fibroblasts; 7.5 μM): no activity
3 | 294 | 283 | 242 | 110 | 48 | 25 | 82 | C[C@H](O)[C@H](O)C1=Nc2c(N)nc(N)nc2NC1 [(IV), 2,4-diamino-7,8-dihydro-6-(L-erythro-1,2-dihydroxylpropyl)pteridine] | about 20 -fold | about 2.5 -fold |  |  |  |  |  |  |  |  | 

Row | Compound | NO synthase activity [4, 6] [nmol/mg/min] | NO synthase activity [4, 7] [nmol/mg/min] | NO synthase activity [4, 8] [nmol/mg/min] | NO synthase activity [4, 10] [nmol/mg/min] | NO synthase activity [4, 12] [nmol/mg/min] | NO synthase activity [4, 13] [nmol/mg/min] | inhibition at 100 µM [4, 12] [%] | affinity for nitric oxide synthase relative to tetrahydrobiopterin (fold higher) [2] | affinity for nitric oxide synthase relative to tetrahydrobiopterin (fold higher) [3] | NO synthase activity [4, 9] [nmol/mg/min] | inhibition at 3 µM [4, 9] [%] | NO synthase activity [4, 11] [nmol/mg/min] | inhibition at 30 µM [4, 11] [%] | inhibition at 7.8 µM (murine 3T3 fibroblasts; Mus musculus, Fibroblast) [%] | inhibition at 15.6 µM (murine 3T3 fibroblasts; Mus musculus, Fibroblast) [%] | inhibition at 31.2 µM (murine 3T3 fibroblasts; Mus musculus, Fibroblast) [%] | inhibition at 62.5 µM (murine 3T3 fibroblasts; Mus musculus, Fibroblast) [%] | other results
4 | C[C@H](O)[C@H](O)C1CNc2nc(N)nc(N)c2N1 (stereo partly drawn) [(I), 2,4-diamino-5,6,7,8-tetrahydro-6-(L-erythro-1,2-dihydroxylpropyl)pteridine] | 279 | 262 | 181 | 72 | 35 | 24 |  | about 20 -fold | about 2.5 -fold | 125 | 58 | 50 | 83 | 44 | 65 | 77 | 88 | IC50 [1]: 100 µM; IC50 (murine NIH-3T3; Mus musculus, NIH3T3, murine interferon-γ (250 U/ml) and LPS (1 μg/ml)): 13 µM; cellular toxicity (murine NIH-3T3; murine NIH-3T3, nitrite formation test): without apparent cellular toxicity; IC50 (murine inducible NOS): 7 µM; specificity for NOSs (NOSs): highly specific for NOSs; IC50 ([4]; 10 μM tetrahydrobiopterin, rat neuronal NOS, read-out: IC50 (50% inhibitory concentration), inhibition of stimulation of NOSs by tetrahydrobiopterin): 1000 nM; cytotoxicity (3T3 murine fibroblasts): no cytotoxicity; inhibition of phenylalanine-4-hydroxylase [5]: 30%; inhibition at 7.5 µM (murine 3T3 fibroblasts; Mus musculus, Fibroblast, 7.5 μM): 44%; NO synthase inhibitor potency compared with (III) (murine 3T3 fibroblasts; compared with (III)): more potent NO synthase inhibitor
